Measured values: publication PMC11224556, “Next-generation of BBQ analogues that selectively target breast cancer” (Frontiers in Chemistry, 2024)
Read-outs that look alike come from different tables or passages of the source.

How the values were obtained:
Type in all cases: cell-based, human
[1] = test system: A2780 (ovary) cells; assay: MTT growth inhibition assay (72 h)
Description: (§1) Each BBQ analogue, 2-14 was screened for their growth inhibition ability (GI50) in a broad panel of cancer cell lines and a non-cancer breast cell line (MCF10A), using the MTT growth inhibition assay (Table 1) ([Baker et al., 2021b]). The cancer panel comprised HT29 (colorectal), U87 (brain), SJ-G2 (brain), A2780 (ovary), Du145 (prostate), BE2-C (neuronal), MIA (pancreas), H460 (lung, ER+), A431 (vulva, ER+ (estrogen receptor positive)), and a wide selection of breast cancer cell lines with varying receptor status including MCF-7 (ER + luminal A), T47D (ER/PR+ (progesterone receptor positive)luminal A), ZR-75-1 (ER/PR + luminal A), BT-474 (ER/PR/HER2+ luminal B), SKBR-3 (HER2+), MDA-MB-468, BT20, and MDA-MB-231 (basal, triple negative (TN) for ER, PR, and HER2).
(§2) Stock solutions were prepared as follows and stored as 20 mM DMSO solutions at −20 °C. All cell lines were cultured in a humidified atmosphere 5% CO2 at 37 °C. The cancer cell lines were maintained in Dulbecco’s modified Eagle’s medium (DMEM) (Trace Biosciences, Australia) supplemented with 10% foetal bovine serum (FBS), 10 mM sodium bicarbonate, penicillin (100 IU/mL), streptomycin (100 μg/mL), and glutamine (4 mM). The non-cancer MCF10A cell line was cultured in DMEM:F12 (1:1) cell culture media, 5% heat inactivated horse serum, supplemented with penicillin (50 IU/mL), streptomycin (50 μg/mL), 20 mM Hepes, L-glutamine (2 mM), epidermal growth factor (20 ng/mL), hydrocortisone (500 ng/mL), cholera toxin (100 ng/mL), and insulin (10 μg/mL). The AhR reporter cell line HT29-Lucia™ (Invivogen, United States) was maintained in DMEM supplemented with 10% heat inactivated FBS, L-glutamine (2 mM), penicillin (100 IU/mL), streptomycin (100 μg/mL), 100 μg/mL Normocin™, and 100 μg/mL of the selective antibiotic Zeocin™. All cell lines were purchased from the American Type Culture Collection (ATCC), except for A2780 and A431 which were from the European Collection of Authenticated Cell Cultures (ECACC), and SJ-G2 cell line which was from Dr Mary Danks, St Jude Children’s Research hospital, Memphis, TN.
(§3) Cells in logarithmic growth were transferred to 96-well plates. Cytotoxicity was determined by plating cells in duplicate in 100 μL medium at a density of 2,500–4,000 cells/well in 96 well plates. On day 0, (24 h after plating) when the cells were in logarithmic growth 100 μL medium with or without the test agent was added to each well. After 72 h drug exposure growth inhibitory effects were evaluated using the MTT (3-[4,5-dimethylthiazol-2-yl]-2,5-diphenyltetrazolium bromide) assay with absorbance read at 540 nm. An eight-point dose response curve was produced, using MS Excel software. From these dose-response curves, the GI50 value was calculated, representing the drug concentration at which cell growth is 50% inhibited based on the difference between the optical density values on day 0 and those at the end of drug exposure ([Bradshaw et al., 2008]; [Zhang et al., 2009]). Each data point was conducted in duplicate and the mean ± S.E.M. calculated from four to five replicates (n = 4 or 5), which were performed on separate occasions and separate cell line passages. Where shown, significant test results were determined using T-test analysis at p < 0.01 and p < 0.05 with a two tail distribution.

[2] = test system: A431 (vulva/skin) cells; assay: MTT growth inhibition assay (72 h)
Description: as §1, §2, §3

[3] = test system: BE2-C (neuronal) cells; assay: MTT growth inhibition assay (72 h); conditions: Neuron
Description: as §1, §2, §3

[4] = test system: BT20 breast cancer cells; assay: MTT growth inhibition assay (72 h)
Description: as §1, §2, §3

[5] = test system: BT474 breast cancer cells; assay: MTT growth inhibition assay (72 h)
Description: as §1, §2, §3

[6] = test system: Du145 (prostate) cells; assay: MTT growth inhibition assay (72 h)
Description: as §1, §2, §3

[7] = test system: H460 (lung) cells; assay: MTT growth inhibition assay (72 h)
Description: as §1, §2, §3

[8] = test system: HT29 (colorectal) cells; assay: MTT growth inhibition assay (72 h)
Description: as §1, §2, §3

[9] = test system: MCF-7 breast cancer cells; assay: MTT growth inhibition assay (72 h)
Description: as §1, §2, §3

[10] = test system: MCF10A normal breast cells; assay: MTT growth inhibition assay (72 h)
Description: as §1, §2, §3

[11] = test system: MDA-MB-231 breast cancer cells; assay: MTT growth inhibition assay (72 h); conditions: MDA-MB-231, Breast (TN)
Description: as §1, §2, §3

[12] = test system: MDA-MB-468 breast cancer cells; assay: MTT growth inhibition assay (72 h); conditions: MDA-MB-468, Breast (TN)
Description: as §1, §2, §3

[13] = test system: MIA (pancreas) cells; assay: MTT growth inhibition assay (72 h)
Description: as §1, §2, §3

[14] = test system: SJ-G2 (brain) cells; assay: MTT growth inhibition assay (72 h); conditions: SJ-G2, Brain (GBM)
Description: as §1, §2, §3

[15] = test system: SKBR3 breast cancer cells; assay: MTT growth inhibition assay (72 h)
Description: as §1, §2, §3

[16] = test system: T47D breast cancer cells; assay: MTT growth inhibition assay (72 h); conditions: Breast (ER/PR)
Description: as §1, §2, §3

[17] = test system: U87 (brain) cells; assay: MTT growth inhibition assay (72 h); conditions: U87, Brain (GBM)
Description: as §1, §2, §3

[18] = test system: ZR-75-1 breast cancer cells; assay: MTT growth inhibition assay (72 h); conditions: ZR-75-1, Breast (ER/PR)
Description: as §1, §2, §3

[19] = test system: broad panel of cancer cell lines and non-cancer breast cell line MCF10A; assay: MTT growth inhibition: GI50 ranges and selectivity across the cell line panel
Description: as §1, §2, §3

[20] = Homo sapiens, A-431, A431, Skin (ER)
[21] = Homo sapiens, BT-20, BT20, Breast (TN)
[22] = Homo sapiens, BT-474, BT474, Breast (ER/PR/HER2)
[23] = Homo sapiens, NCI-H460, H460, Lung (ER)
[24] = Homo sapiens, HT-29, HT29, Colon
[25] = Homo sapiens, MCF7, MCF-7, Breast (ER)
[26] = Homo sapiens, SK-BR-3, SKBR3, Breast (HER2)

Molecule: O=c1c2cccc3cccc(c32)c2nc3cc(Cl)ccc3n12 [Compound 4, 11-Chloro-7H-benzo[de]benzo[4,5]imidazo[2,1-a]isoquinolin-7-one]
- GI50 ([1]; Homo sapiens): 6 ± 0.32 µM
- GI50 [2, 20]: 10 ± 2 µM
- GI50 ([3]; Homo sapiens, BE(2)-C): 10 ± 1.7 µM
- GI50 [4, 21]: 28 ± 3 µM
- GI50 [5, 22]: > 50 µM
- GI50 ([6]; Homo sapiens, DU-145): 12 ± 0.33 µM
- GI50 [7, 23]: 8.2 ± 1.92 µM
- GI50 [8, 24]: 18 ± 3.2 µM
- GI50 [9, 25]: 5.3 ± 0.39 µM
- GI50 ([10]; Homo sapiens, MCF-10A): 4.1 ± 0.2 µM
- GI50 ([11]; Homo sapiens): 9 ± 1 µM
- GI50 ([12]; Homo sapiens): 0.88 ± 0.17 µM
- GI50 ([13]; Homo sapiens): 31 ± 3.3 µM
- GI50 ([14]; Homo sapiens): 8.8 ± 1.1 µM
- GI50 [15, 26]: 0.26 ± 0.07 µM
- GI50 ([16]; Homo sapiens): 8.6 ± 2.2 µM
- GI50 ([17]; Homo sapiens): 18 ± 1.8 µM
- GI50 ([18]; Homo sapiens): 0.81 ± 0.43 µM
- GI50 ([19]; Homo sapiens, read-out: GI50 (range over cell lines and both compounds 3 and 4), ZR-75-1, SKBR3 and MDA-MB-468): 0.26 to 0.88 µM
- greatest difference between growth inhibition in breast cancer cells and normal breast cells (fold) ([19]; SKBR3 vs MCF10A): 16 fold

Molecule: 3-Chloro-7H-benzo[de]benzo[4,5]imidazo[2,1-a]isoquinolin-7-one (10a) and 4-chloro-7H-benzo[de]benzo[4,5]imidazo[2,1-a]isoquinolin-7-one (10b) [Compound 10]
- GI50 [1]: 4.6 ± 0.25 µM
- GI50 ([2]; A431, Skin (ER)): 0.15 ± 0.036 µM
- GI50 [3]: 7 ± 0.23 µM
- GI50 ([4]; BT20, Breast (TN)): 0.27 ± 0.12 µM
- GI50 ([5]; BT474, Breast (ER/PR/HER2)): 0.56 ± 0.42 µM
- GI50 [6]: > 50 µM
- GI50 ([7]; H460, Lung (ER)): 5.7 ± 1.48 µM
- GI50 ([8]; HT29, Colon): 2.9 ± 0.18 µM
- GI50 ([9]; MCF-7, Breast (ER)): 0.14 ± 0.045 µM
- GI50 [10]: 4.2 ± 0.38 µM
- GI50 [11]: 29 ± 10.3 µM
- GI50 [12]: 0.0056 ± 0.0017 µM
- GI50 [13]: 9.8 ± 3.1 µM
- GI50 [14]: 4.8 ± 0.44 µM
- GI50 ([15]; SKBR3, Breast (HER2)): 0.061 ± 0.024 µM
- GI50 [16]: 0.18 ± 0.019 µM
- GI50 [17]: 37 ± 5.8 µM
- GI50 [18]: 0.072 ± 0.03 µM
- selectivity relative to the normal cell line (fold, range over cell lines) ([19]; A431, MCF-7, T47D, ZR-75-1, SKBR-3, MDA-MB-468, BT20, BT474 vs MCF10A): 7.5 to 750 fold
- GI50 ([19]; MCF-7, T47D, ZR-75-1, SKBR-3, MDA-MB-468, BT20, BT474, read-out: GI50 (range over cell lines)): 0.0056 to 0.56 µM
- fold more potent than head group substituted analogues 3, 4, 6, 7, 8 and 9 ([19]; across the cell lines examined (Table 1)): > 10 fold

Molecule: O=c1c2ccccc2cc2[nH]c3ccccc3n12 [Compound 12, Benzo[4,5]imidazo[1,2-b]isoquinolin-11(5H)-one]
- GI50 ([1]; Homo sapiens): 3 ± 2.1 µM
- GI50 [2, 20]: 0.48 ± 0.1 µM
- GI50 ([3]; Homo sapiens, BE(2)-C): 0.24 ± 0.079 µM
- GI50 [4, 21]: 0.16 ± 0.048 µM
- GI50 [5, 22]: > 50 µM
- GI50 ([6]; Homo sapiens, DU-145): > 50 µM
- GI50 [7, 23]: > 50 µM
- GI50 [8, 24]: 0.21 ± 0.056 µM
- GI50 [9, 25]: 0.12 ± 0.05 µM
- GI50 ([10]; Homo sapiens, MCF-10A): 0.54 ± 0.07 µM
- GI50 ([11]; Homo sapiens): > 50 µM
- GI50 ([12]; Homo sapiens): 0.141 ± 0.074 µM
- GI50 ([13]; Homo sapiens): 0.62 ± 0.16 µM
- GI50 ([14]; Homo sapiens): 43 ± 10.3 µM
- GI50 [15, 26]: 0.2 ± 0.071 µM
- GI50 ([16]; Homo sapiens): 0.164 ± 0.083 µM
- GI50 ([17]; Homo sapiens): > 50 µM
- GI50 ([18]; Homo sapiens): 0.17 ± 0.023 µM

Molecule: O=c1c2cccc3cccc(c4n1Cc1ccccc1N=4)c32 [Compound 13, 7H,9H-benzo[4,5]isoquinolino[1,2-b]quinazolin-7-one]
- GI50 ([1]; Homo sapiens): > 50 µM
- GI50 [2, 20]: 43 ± 4.4 µM
- GI50 ([3]; Homo sapiens, BE(2)-C): 42 ± 1.5 µM
- GI50 [4, 21]: > 50 µM
- GI50 [5, 22]: > 50 µM
- GI50 ([6]; Homo sapiens, DU-145): > 50 µM
- GI50 [7, 23]: > 50 µM
- GI50 [8, 24]: > 50 µM
- GI50 [9, 25]: 32 ± 1.9 µM
- GI50 ([10]; Homo sapiens, MCF-10A): 38 ± 1.2 µM
- GI50 ([11]; Homo sapiens): > 50 µM
- GI50 ([12]; Homo sapiens): 36 ± 3.8 µM
- GI50 ([13]; Homo sapiens): 38 ± 1 µM
- GI50 ([14]; Homo sapiens): 56 ± 3.7 µM
- GI50 [15, 26]: 47 ± 2.7 µM
- GI50 ([16]; Homo sapiens): 40 ± 3.3 µM
- GI50 ([17]; Homo sapiens): > 50 µM
- GI50 ([18]; Homo sapiens): 35 ± 1 µM
